The record followed here is the OligoGym collection.

These antisense oligonucleotides have a phosphorothioate backbone; sugars and methylation of C are not fully specified.
Also: test concentration or dose not given here.

The target of the first data set is ABCB1. Particulars: ASO.
TTGCGGTCCCCTTCAAGATC: the remaining target (mRNA or protein) (fraction of control) came out at 0.09. Same read-out and setting: the figure for TTTTATTGTTCAGTTTAAAAA is 0.92.

The target in a further data set is ABCC1. Particulars: ASO.
In turn, ACCGGATGGCGGTGGCTGCT displayed a remaining target (mRNA or protein) (fraction of control) of 0.73.

In the case of AGCCCCGGAGCGCCATGCCG, the remaining target (mRNA or protein) (fraction of control) turned out to be 0.74. On the same count and under the same terms, the figure for AGGCCCTGCAGTTCTGACCA is 0.95; for CAGGAGGTCCGATGGGGCGC it is 0.95; for CCGGTGGCGCGGGCGGCGGC it is 0.69. On the same count and under the same terms, the result for CGCATCTCTGTCTCTCCTGG reads 0.77; that for CGCGCTGCTTCTGGCCCCCA, 0.56; that for CGGGGCCGCAACGCCGCCTG, 0.95. On the same count and under the same terms, the figure for CTCCTCCCTGGGCGCTGGCA is 0.74; for GCGGCGATGGGCGTGGCCAG it is 0.73.

GCTCACACCAAGCCGGCGTC yielded a remaining target (mRNA or protein) (fraction of control) of 0.78.

For the sequence GGCACCCACACGAGGACCGT, the remaining target (mRNA or protein) (fraction of control) stood at 0.79.

GGTGATCGGGCCCGGTTGCT yielded a remaining target (mRNA or protein) (fraction of control) of 0.68.

With TCGGAGCCATCGGCGCTGCA, the remaining target (mRNA or protein) (fraction of control) amounted to 0.8.

Take TGCTGTTCGTGCCCCCGCCG: the remaining target (mRNA or protein) (fraction of control) was 0.51.

A further data set concerns the target IGF2. The settings on record: ASO.
In turn, ACCGCGCTTTCCTCCCGCCG came in with a remaining target (mRNA or protein) (fraction of control) of 0.53. As to AGCCCCAGCGACCCCAGCGT, the remaining target (mRNA or protein) (fraction of control) is at least 1.

With CCCACCTCCATCACCATGGC, the remaining target (mRNA or protein) (fraction of control) turned out to be 0.52. On the same count and under the same terms, the figure for CGATCTTGTGCGGTGTCCTG is 0.86. The same measure, in the same setting: the figure for CGCGCATGTCATCGGGAATG is 0.31; for CTCTTCTGCCCTGTTTTGTC it is 0.31. On the same count and under the same terms, the figure for GGAACTCAGTGGAACTCAGG is 0.11; for GTGAAGGCAGACCACCGACC it is 0.27. With TAAATAAGGACCAGCTCCCA, the remaining target (mRNA or protein) (fraction of control) worked out at 0.41. TACAAGATAGTACAGTACGC displayed a remaining target (mRNA or protein) (fraction of control) of 0.33.

Sequence TCACCATGGCCAGCCCCAGC showed a remaining target (mRNA or protein) (fraction of control) of 0.81.

For a further data set, the target named is IL11. The settings on record: ASO.
On to TTGGACGGACGGCCGTGGAG, for which the remaining target (mRNA or protein) (fraction of control) was found to be 0.75.
